This data set can be described thus: Plasma pharmacokinetics. It counts as in vivo, human.

As to `CNC(=O)c1ccc(-c2cnc3ncc(Cc4ccc5ncccc5c4)n3n2)cc1F` [capmatinib], the “Tmax, Median” value (300 mg BID capsule, Cycle 1 Day 1, n = 8, plasma) is given as 2.0 h. Also, the area under the curve AUC(0-t) (human, plasma, oral, 300 mg, geomean AUC0−12 h, 300 mg BID capsules, cycle 1 day 1) came to 7740 ng·h/mL. In addition, the concentration (human, plasma, oral, 300 mg, geomean Cmax, 300 mg BID capsules, cycle 1 day 1) peaked (Cmax) at 2140 ng/mL. In addition, the steady-state accumulation entry (patients with HCC) is on record as “minimal”.

The values are drawn from publication PMC6906348 (Therapeutic Advances in Medical Oncology, 2019).
